# Data from patent US10094834B2, “Method of selecting individualized brain cancer therapy” (TURUN YLIOPISTO, priority 2012, dated 2018).
# “Also recorded” adds a separate entry of the source.
# Columns and labels:
# Type in all cases: cell-based, human
# T98G glioblastoma cells [1] = test: Apoptosis assay by sub-G0/G1 fraction estimation (nuclear fragmentation, PI/FACS); conditions: for apoptotic nuclear fragmentation (sub-G0/G1 fraction): T98G cells depleted of PME-1 (PME-1 siRNA 48 hrs), drug treatment 24 hrs; for effect on PME-1 siRNA and STS mediated apoptosis (nuclear fragmentation): T98G
# Method: The percentage of the sub-G0/G1 fraction containing fragmented nuclei stained with Propidium iodide (PI) was taken as a measure of apoptotic cells. 3.5-4×10^4 cells were plated in 24-well plates, transfected with siRNA for 48 hrs, and then treated with indicated concentration of test compounds in fresh media. After 24 hrs of treatment, both floating and adherent cells were harvested by centrifugation. Cell pellets were resuspended in 400 μl of hypotonic PI buffer, containing 40 mM Tri-sodium citrate (Merck), 0.3% Triton X-100 (Sigma-Aldrich) and 50 μg/ml Propidium iodide (Sigma-Aldrich) in PBS, and incubated at room temperature for 10 minutes in dark. The flow cytometric analysis of PI stained nuclei was performed and the recorded data was analyzed using a FACScan flow cytometer and software (Becton Dickinson) respectively.
# In experiments using pan-caspase inhibitor, cells were kept in growth media containing 30 μM Z-VAD-FMK starting from 18 hrs after transfection till the PI staining.
# The T98G cells transfected with siRNA for 48 hrs were given drug treatments for 24 hrs and were subsequently lysed, and their nuclei were stained using hypotonic propidium iodide buffer. The lysates were analysed for changes in the sub-G0/G1 fraction of fragmented nuclei by flow cytometry (FACS) (FIG. 1B). Condensation and fragmentation of nucleus is a key biochemical feature of apoptosis and sub-G0/G1 analysis has been widely used for detection of apoptosis (FEBS Lett., 1986, 194(2):347-50; Cytometry, 1991, 12(4):323-329; Nature Protocols, 2006, 1:1458-1461).
# [2] = test system: U251MG glioblastoma cells; test: Colony formation assay, U251MG; conditions: PME-1 depleted versus scrambled siRNA, 2 days of treatment
# From the text: (§1) Cells plated in very low density (4-6×10^3) in 6-well plates were allowed to grow for about 7 days until they form small colonies. These cells were then transfected with Scrambled or PME-1 siRNA using Lipofectamine RNAiMAX reagent (Invitrogen) according to the manufacturer's instructions. After 48 hrs, treatments were given with indicated concentration of chemical drugs for another 48 hrs. Cell colonies were washed with PBS, fixed with 3.7% formaldehyde and stained with 0.2% crystal violet solution (made in 10% ethanol) for 15 minutes at room temperature each. Excess stain was removed by repeated washings with PBS. Plates were dried and pictures were taken with Olympus SP-600UZ camera or Epson perfection […] scanner and analysed with ImageJ.
# U87MG glioblastoma cells = test: Colony formation assay, U87MG; conditions: PME-1 depleted versus scrambled siRNA, 2 days of treatment
# From the text: as §1
# T98G glioblastoma cells [3] = test: Cell viability assay, CellTiter-glo (CTG)
# Method: Cell viability was determined by CellTiter-glo (CTG) assay which measures the cellular ATP levels as an indicator of metabolically active and viable cells. CTG reagent kit was purchased from Promega Corp. and assays were performed according to their recommendations. Assays were performed in white polystyrene 96-well plates (Nunc, Thermo Fisher Scientific Inc.) and luminescence was measured with Perkin Elmer Victor2 Plate Reader.
# [4] = test system: Caspase-3/7 in T98G cells; test: Caspase-3 and -7 activity, Caspase-Glo 3/7 Assay
# Method: Caspase-3 and -7 activity was measured by luminescence based method, which utilize a substrate containing Caspase-3 and -7 target peptide DEVD, named Caspase-Glo 3/7 Assay (Promega Corp.). Assays were performed in white polystyrene 96-well plates (Nunc, Thermo Fisher Scientific Inc.) according to manufacturer's instructions and luminescence was measured with Perkin Elmer Victor2 Plate Reader.
# T98G glioblastoma cells [5] = test: Colony formation assay, T98G
# From the text: (§2) Cells plated in very low density (4-6×10^3) in 6-well plates were allowed to grow for about 7 days until they form small colonies. These cells were then transfected with Scrambled or PME-1 siRNA using Lipofectamine RNAiMAX reagent (Invitrogen) according to the manufacturer's instructions. After 48 hrs, treatments were given with indicated concentration of chemical drugs for another 48 hrs. Cell colonies were washed with PBS, fixed with 3.7% formaldehyde and stained with 0.2% crystal violet solution (made in 10% ethanol) for 15 minutes at room temperature each. Excess stain was removed by repeated washings with PBS. Plates were dried and pictures were taken with Olympus SP-600UZ camera or Epson perfection V700 scanner and analysed with ImageJ.
# (§3) Next, the effect of PME-1 expression on the sensitivity of glioblastoma cells to STS was tested by colony formation assay in T98G glioblastoma cells and another glioblastoma cell line U118MG. For this experiment, these cells were grown in 6-well plates until the formation of small colonies which were then transfected with Scrambled or PME-1 siRNA for 48 hrs followed by treatment with STS at the indicated concentrations for another 48 hrs. […] Similar results were obtained with both glioblastoma cell lines.
# [6] = test system: U118MG glioblastoma cells; test: Colony formation assay, U118MG
# From the text: as §2, §3
# [7] = PME-1 siRNA 48 hrs then drug 48 hrs
# [8] = scrambled siRNA (intact PME-1), drug 48 hrs
compound,measurement,setting,value
COC(=O)[C@@]1(O)C[C@H]2O[C@]1(C)n1c3ccccc3c3c4c(c5c6ccccc6n2c5c31)C(=O)NC4 [K252a],apoptotic nuclear fragmentation (sub-G0/G1 fraction),T98G glioblastoma cells [1],levels even higher than STS itself
same,"cell killing activity, colony formation",[2],enhanced the cell killing activity
same,"cell killing activity, colony formation",U87MG glioblastoma cells,enhanced the cell killing activity
z-VAD-fmk,effect on PME-1 siRNA and STS mediated apoptosis (nuclear fragmentation),"T98G glioblastoma cells [1]; PME-1 siRNA plus STS, pan-caspase inhibitor 30 μM throughout the experiment",complete reversal
TRAIL,apoptotic nuclear fragmentation (sub-G0/G1 fraction),T98G glioblastoma cells [1],did not show the same trend
"C[C@]12O[C@H](C[C@]1(O)CO)n1c3ccccc3c3c4c(c5c6ccccc6n2c5c31)CNC4=O [CEP-701, (9S,10S,12R)-2,3,9,10,11,12-Hexahydro-10-hydroxy-10-(hydroxymethyl)-9-methyl-9,12-epoxy-1H-diindolo[1,2,3-fg:3′,2′,1′-kl]pyrrolo[3,4-i][1,6]benzo di-azocin-1-one]",apoptotic nuclear fragmentation (sub-G0/G1 fraction),T98G glioblastoma cells [1],levels even higher than STS itself
"CO[C@@H]1[C@H](N(C)C(=O)c2ccccc2)C[C@H]2O[C@]1(C)n1c3ccccc3c3c4c(c5c6ccccc6n2c5c31)C(=O)NC4 [PKC412, [9S-(9α, 10β,11β,13α)]-N-(2,3,10,11,12,13-Hexahydro-10-methoxy-9-methyl-1-oxo-9,13-epoxy-1H,9H-diindolo[1,2,3-gh:3′,2′,1′-lm]pyrrolo[3,4-j][1,7]benzodiazonin-11-yl)-N-methyl benzamide]",apoptotic nuclear fragmentation (sub-G0/G1 fraction),T98G glioblastoma cells [1],levels even higher than STS itself
same,"cell killing activity, colony formation",[2],enhanced the cell killing activity
same,"cell killing activity, colony formation",U87MG glioblastoma cells,enhanced the cell killing activity
"O=C1NC(=O)c2c1c1c3ccccc3n3c1c1c2c2ccccc2n1C1CCC3O1 [SB 218078, 9,10,11,12-Tetrahydro-9,12-epoxy-1H-diindolo[1,2,3-fg:3′,2′,1′-kl]pyrrolo[3,4-i][1,6]benzodi-azocine-1,3(2H)-dione]",apoptotic nuclear fragmentation (sub-G0/G1 fraction),T98G glioblastoma cells [1],moderate levels of apoptosis at higher concentration
"PME-1 siRNA: PME-1 siRNA 5′-GGA AGU GAG UCU AUA AGC A-3′; SEQ ID NO:1 (GGAAGUGAGUCUAUAAGCA; listed as RNA, chemistry not given here)",cell viability (CTG),T98G glioblastoma cells [3]; PME-1 siRNA alone,reduced cell viability by small fraction
same,increase of Caspase-3/7 activity,[4]; PME-1 depletion alone,more than 2 fold
C=C1[C@@H](O)[C@@H]2O[C@]3(CC[C@H](/C=C/[C@@H](C)[C@@H]4CC(C)=C[C@@]5(O[C@H](C[C@@](C)(O)C(=O)O)CC[C@H]5O)O4)O3)CC[C@H]2O[C@@H]1[C@@H](O)C[C@H](C)[C@H]1O[C@@]2(CCCCO2)CC[C@H]1C [okadaic acid],effect on PME-1 siRNA and STS mediated apoptosis (nuclear fragmentation),T98G glioblastoma cells [1]; PP2A inhibitor pre-treatment 24 hrs prior STS treatment,sufficient to rescue cells
"CN[C@@H]1C[C@H]2O[C@@](C)([C@@H]1OC)n1c3ccccc3c3c4c(c5c6ccccc6n2c5c31)C(=O)NC4 [STS, [9S-(9α,10β,11β,13α)]-2,3,10,11,12,13-Hexa-hydro-10-methoxy-9-methyl-11-(methylamino)-9,13-epoxy-1H,9H-diindolo[1,2,3-gh:3′,2′,1′-lm]pyrrolo[3,4-j][1,7]benzo diazonin-1-one]",apoptotic nuclear fragmentation (sub-G0/G1 fraction),T98G glioblastoma cells [1],very high level of nuclear fragmentation; also recorded: induce apoptosis in a dose dependent manner; also recorded: highly sensitive to STS induced cell death even at lowest concentrations
same,concentration at which drug alone started inducing cell death,T98G glioblastoma cells [1]; control (Scrambled siRNA transfected) T98G cells,higher than 50 nM
same,concentration at which limited cell death was observed with drug alone,T98G glioblastoma cells [1]; untransfected T98G cells,higher than 30 nM
same,colony formation (colonogenic potential),T98G glioblastoma cells [5]; [7],almost complete loss of colonies
same,colony formation (colonogenic potential),T98G glioblastoma cells [5]; [8],did not respond well
same,colony formation (colonogenic potential),[6]; [7],almost complete loss of colonies
same,colony formation (colonogenic potential),[6]; [8],did not respond well
same,"cell killing activity, colony formation",[2],enhanced the cell killing activity
same,"cell killing activity, colony formation",U87MG glioblastoma cells,enhanced the cell killing activity
same,cell viability (CTG),T98G glioblastoma cells [3]; PME-1 siRNA plus STS treatment,drastic decrease in the cell viability
same,increase of Caspase-3/7 activity,[4]; PME-1 depletion in combination with STS treatment,above 6 fold
"CN[C@@H]1C[C@H]2O[C@@](C)([C@@H]1OC)n1c3ccccc3c3c4c(c5c6ccccc6n2c5c31)C(=O)N[C@H]4O [UCN-01, (9S)-2,3,10,11,12,13-Hexahydro-3α-hydroxy-10α-methoxy-9-methyl-11α-methyl amino-9β,13β-epoxy-1H,9H-diindolo[1,2,3-gh:3′,2′,1′-lm]pyrrolo[3,4-j][1,7]benzo diazonin-1-one]",apoptotic nuclear fragmentation (sub-G0/G1 fraction),T98G glioblastoma cells [1],levels even higher than STS itself
CC1CNCCN1S(=O)(=O)c1cccc2cnccc12 (centres unmarked) [H7],apoptotic nuclear fragmentation (sub-G0/G1 fraction),T98G glioblastoma cells [1],moderate
